Key:
[1] = test system: osteoclast differentiation of Raw 264.7 cells; experiment: RANKL-induced osteoclast differentiation inhibition (osteoclast count); format: cell-based; details: Mus musculus, RAW264.7, 96 h; 10 mM; 50 ng/mL RANKL, 4 days; read-out: osteoclast differentiation inhibitory effect
Description: The media were removed after the incubation, followed by washing with PBS, and then the cells were fixed and stained using a leukocyte acid phosphatase kit (Sigma). After the staining, the osteoclasts were counted using a microscope, and the osteoclast count in a sample was expressed as a percentage relative to the control.

[2] = test system: nitric oxide (NO) production in RAW264.7 cells; experiment: Nitric oxide (NO) production inhibition, GRIESS assay, LPS-stimulated cells; format: cell-based; details: 12.5 μM; 500 ng/mL LPS, 24 hours
Description: After the incubation, 100 μL of the supernatant was taken and transferred into a 96-well plate, and 100 μL of GRIESS solution was added, followed by incubation for 10 minutes. Thereafter, the absorbance was measured at 540 nm using a microplate reader to determine the NO production inhibitory effect.

| Compound | inhibition at 10000 µM [1] | NO production [2] |
| --- | --- | --- |
| NCCCC(O)(P(=O)(O)O)P(=O)(O)O [alendronate] | 72.2% |  |
| Cc1ccc(-c2cc(C(F)(F)F)nn2-c2ccc(S(N)(=O)=O)cc2)cc1 [celecoxib] |  | 46.7% |
